# Where two headings read alike, the source gives them in different places.
# Legend:
# [1] = test system: LPS-stimulated RAW264.7 murine macrophages; design: method as in PMID 28218691; details: cited from earlier work
# [2] = test system: human prostate PC-3 cancer cells; assay: Cytotoxic activity (MTT assay); assay type: cell-based; details: for Cell Viability, % of Control, PC-3: 100 µM, 24 h, MTT; for IC50: Homo sapiens
# Procedure: (§1) The human prostate cancer cells PC-3 and CRL-1435 and the human embryonic kidney cells HEK-293 and CRL-1573TM were purchased from the American Type Culture Collection (ATCC; Manassas, VA, USA). PC-3 and HEK-293 cells were cultured in DMEM medium containing 10% fetal bovine serum (Biolot, St. Petersburg, Russia) and 1% penicillin/streptomycin (Biolot, St. Petersburg, Russia) at 37 °C in a humidified atmosphere with 5% (v/v) CO2. The cells were incubated in cultural flasks until sub-confluent (~80%).
# (§2) PC-3 cells (5 × 10^3 cells/well) and HEK 293 cells (8 × 10^3 cells/well) were seeded in a 96-well plate and incubated overnight. […] Cell viability was then determined by the MTT (3-(4,5-dimethylthiazol-2-yl)-2,5-diphenyltetrazolium bromide) method according to the manufacturer’s instructions (Sigma-Aldrich, St. Louis, MO, USA). The absorbance of the converted formazan was measured using a Multiskan FC microplate photometer (Thermo Scientific, Waltham, MA, USA) at λ = 570 nm. The results are presented as percentages of the control data.
# [3] = test system: PC-3 cells; assay: Colony formation (clonogenic) assay; assay type: cell-based; details: Homo sapiens, PC-3, 240 h; 10 days; read-out: half-maximal concentration of the inhibition of PC-3 colony formation
# Procedure: The influence of compounds on colony formation by PC-3 cells was tested by the clonogenic assay. The concentration of PC-3 cells was 0.33 × 10^3/mL. The cells were incubated for 10 days, and then they were fixed with methanol (25 min), staining with 0.5% solution of crystal violet (25 min) and washing with PBS. The counting of grown colonies was carried out using a BIO-PRINT-Cx4 Edge-Fixed Pad-Container (Vilber, Collegien, France) using Bio-Vision Software user and service manual-v18.01 (Vilber, Collegien, France). The results are presented as colony inhibition in comparison with the control.
# [4] = test system: breast MCF-7 cancer cells; assay: Cytotoxic activity (MTT assay); assay type: cell-based, human; details: for Cell Viability, % of Control, MCF-7: 100 µM, 24 h, MTT; for IC50: Homo sapiens
# Procedure: (§3) The influence of compounds 1, 2 and 4–14 on the viability of normal human kidney […] cells, as well as human prostate PC-3, cervical HeLa and breast MCF-7 cancer cells, was measured using the MTT assay after 24 h of treatment.
# as §2
# [5] = test system: MCF-7 cells; assay: Drug combination study with doxorubicin (MTT); assay type: cell-based, human; details: 24 h
# [6] = test system: Candida albicans KMM 455; assay: Antimicrobial activity, microbial growth in broth (OD620); assay type: cell-based; details: Candida albicans, KMM455; compound at 100 µM; read-out: Inhibition of Microbial Growth, % of Control, C. albicans
# Procedure: (§4) The yeast-like fungus Candida albicans KMM 455 and bacterial strains Staphylococcus aureus ATCC 21027 and Escherichia coli VKPM (B-7935) (Collection of Marine Microorganisms PIBOC FEB RAS) were cultured on solid-medium Mueller–Hinton broth with agar (16.0 g/L) in a Petri dish at 37 °C for 24 h. The assays were performed in 96-well microplates in an appropriate Mueller–Hinton broth. Each well contained 90 µL of a bacterial or yeast-like fungal suspension (10^6 CFU/mL). Then, 10 µL was added of a compound diluted at concentrations from 1.5 µM to 100.0 µM using twofold dilution (DMSO concentration < 1%). Culture plates were incubated overnight at 37 °C, and the OD620 was measured using a Multiskan FC spectrophotometer (Thermo Scientific Inc., Beverly, MA, USA). The antibiotic gentamicin and antifungal agent nitrofungin were used as positive controls at 1 mg/mL; 1% DMSO in PBS served as a negative control. Examination was performed twice and in triplicate. The results were calculated as a percentage of the control data using SigmaPlot 14.0 software.
# [7] = test system: Escherichia coli VKPM (B-7935); assay: as above; assay type: cell-based; details: compound at 100 µM, read-out: Inhibition of Microbial Growth, % of Control, E. coli
# Procedure: as §4
# [8] = test system: Staphylococcus aureus ATCC 21027; assay: as above; assay type: cell-based; details: ATCC21027, compound at 100 µM, read-out: Inhibition of Microbial Growth, % of Control, S. aureus
# Procedure: as §4
# [9] = test system: MCF-7 cells; assay: Colony formation (clonogenic) assay; assay type: cell-based; details: Homo sapiens, MCF7, 240 h; 10 days; read-out: half-maximal concentration of the inhibition of MCF-7 colony formation
# [10] = test system: HeLa cells; assay: Colony formation (clonogenic) assay; assay type: cell-based; details: Homo sapiens, 240 h, 10 days, read-out: half-maximal concentration of the inhibition of HeLa colony formation
# [11] = test system: MCF-7 cells; assay: Cell viability after pretreatment with 4-OHT (estrogen receptor inhibitor); assay type: cell-based, human; details: 14 at 75 µM, 4-OHT at 10 µM
# Procedure: (§5) To detect the possible target of 14, we used 4-hydroxytamoxifen (4-OHT) at a concentration of 10 µM as a known inhibitor of estrogen receptors (ERs), and the data are presented in Figure 14.
# (§6) Figure 14 The influence of 14 (at a 75 µM) on cell viability in the presence of 4-OHT (at 10 µM). Data are presented as the mean ± SEM. * p-value ≤ 0.05 considered significant.
# [12] = test system: HeLa cells; assay: as above; assay type: cell-based, human; details: 14 at 75 µM, 4-OHT at 10 µM
# Procedure: as §5, §6
# [13] = test system: PC-3 cells; assay: as above; assay type: cell-based, human; details: 14 at 75 µM, 4-OHT at 10 µM
# Procedure: as §5, §6
# [14] = test system: normal human kidney cells; assay: Cytotoxic activity (MTT assay); assay type: cell-based; details: 100 µM, 24 h
# Procedure: as §3, §1
# PC-3 cells (5 × 10^3 cells/well) and HEK 293 cells (8 × 10^3 cells/well) were seeded in a 96-well plate and incubated overnight. Then, compounds were added at concentrations of 1–100 μM and incubated for another 24 h. Cell viability was then determined by the MTT (3-(4,5-dimethylthiazol-2-yl)-2,5-diphenyltetrazolium bromide) method according to the manufacturer’s instructions (Sigma-Aldrich, St. Louis, MO, USA). The absorbance of the converted formazan was measured using a Multiskan FC microplate photometer (Thermo Scientific, Waltham, MA, USA) at λ = 570 nm. The results are presented as percentages of the control data.
# [15] = test system: PC-3 cells; assay: Migration (scratch) assay; assay type: cell-based, human; details: 24 h
# Procedure: Silicone 2-well inserts (Ibidi®, Gräfelfing, Germany) were used for formation of a free cell zone in the PC-3 cells’ monolayer. After removing the insert, the gap between the cells was 500 ± 50 μm. The cells were washed twice with PBS after removing the inserts and staining with (5,6)-carboxyfluorescein succinimidyl ester (CFDA SE) (Lumiprobe, Moscow, Russia) fluorescence dye. Then, cells were treated with compound or culture medium only (vehicle control) for 24 h. Cell migration into the wound area was observed under a fluorescence microscope (MIB-2-FL; LOMO, St. Petersburg, Russia) with objective 10× magnification.
# [16] = test system: MCF-7 cells; assay: Migration (scratch) assay; assay type: cell-based, human; details: 24 h
# [17] = test system: cervical HeLa cancer cells; assay: Cytotoxic activity (MTT assay); assay type: cell-based, human; details: for Cell Viability, % of Control, HeLa: 100 µM, 24 h, MTT; for IC50: Homo sapiens, HeLa, read-out: IC50, HeLa cells
# [18] = test system: HeLa cells; assay: Migration (scratch) assay; assay type: cell-based, human; details: 24 h
# [19] = test system: CoCl2-treated HEK-293 cells; assay: Lipid peroxidation level (MitoCLox) in CoCl2-treated cells; assay type: cell-based, human; details: toxic effect of CoCl2; MitoCLox fluorescence dye
# Procedure: The fluorescence probe MitoCLox (Lumiprobe, Moscow, Russia) was used for the detection of the lipid peroxidation level in CoCl2-treated cells. It was added in the cells for 1 h at a concentration of 200 nM. After 1 h, the cells were washed with PBS and fluorescence was measured in ratiometric mode with λem = 520/590 nm using a PHERAStar FS plate reader (BMG Labtech, Offenburg, Germany). The data were processed with MARS Data Analysis v. 3.01R2 (BMG Labtech, Offenburg, Germany) and calculated as a 520/590 ratio.
# [20] = test system: CoCl2-treated HEK-293 cells; assay: Cytoprotective activity, CoCl2-mimic hypoxia, cell viability (MTT); assay type: cell-based, human; details: CoCl2 at 500 µM for 24 h
# Procedure: The HEK-293 cells were exposed to cobalt chloride (II) at a 500 µM for 1 h and then the compounds were added. After 24 h, the viability of the cells was measured via MTT assay as described earlier.
structure (smiles),measurement,setting,value
C[C@]12C=C[C@H]3C[C@@H](CO)CC[C@@H]3[C@H]1C(=O)CCO2 [zosteropenilline B],effect on NO levels,[1],downregulate
"CC(=O)OCCC(=O)[C@@H]1[C@H]2CC[C@H](C)[C@@H](O)[C@@H]2C=C[C@@]1(C)O [Compound 14, 1-acetylpallidopenilline A]","Cell Viability, % of Control, PC-3",[2],45.91 ± 0.67 % of Control
same,IC50,"[2]; PC-3, 24 h, read-out: IC50, PC-3 cell viability",94.2 ± 1.13 µM
same,IC50,"[2]; PC-3, 48 h, read-out: IC50, PC-3 cells",63.4 µM
same,IC50,"[2]; PC-3, 72 h, read-out: IC50, PC-3 cells",48.5 µM
same,IC50,[3],2.48 ± 0.11 µM
same,"Cell Viability, % of Control, MCF-7",[4],23.71 ± 1.05 % of Control
same,IC50,"[4]; MCF7, 24 h, read-out: half-maximal inhibition of the viability of MCF-7 cells",72 ± 2.48 µM
same,IC50,"[4]; MCF7, 48 h, read-out: IC50, MCF-7 cells",54.7 µM
same,IC50,"[4]; MCF7, 72 h, read-out: IC50, MCF-7 cells",41 µM
same,decrease of MCF-7 cell viability,[5]; combination of 14 with doxorubicin at 0.1 µM,50%
same,toxicity to MCF-7 cells compared with doxorubicin alone,[5]; combination of 14 with doxorubicin at 1 µM,more toxic
same,inhibition of growth at 100 µM,[6],0%
same,inhibition of growth at 100 µM,[7],0%
same,inhibition of growth at 100 µM,[8],31.6 ± 7.8%
same,IC50,[9],0.66 µM
same,IC50,[10],0.96 ± 0.02 µM
same,cytotoxicity of 14 after pretreatment with 4-OHT versus 14 alone,[11],significant decrease in the cytotoxicity
same,cytotoxicity of 14 after pretreatment with 4-OHT versus 14 alone,[12],No significant differences
same,cytotoxicity of 14 after pretreatment with 4-OHT versus 14 alone,[13],No significant differences
same,"Cell Viability, % of Control, HEK-298",[14],96.92 ± 4.83 % of Control
same,migration of PC-3 cells,[15],did not affect
same,migration of MCF-7 cells,[16],significantly inhibited
same,"Cell Viability, % of Control, HeLa",[17],53.44 ± 2.14 % of Control
same,IC50,[17]; 48 h,82.7 µM
same,IC50,[17]; 72 h,73.2 µM
same,migration of HeLa cells,[18],significantly inhibited
CC1=C[C@H](O)[C@H]2[C@H](O)[C@@H](C)CC[C@@H]2[C@H]1C(=O)CCO [zosteropenilline H],effect on NO levels,[1],downregulate
"C[C@@]1(O)C=C[C@H]2C[C@@H](CO)CC[C@@H]2[C@H]1C(=O)CCO [Compound 12, zosteropenilline J]","Cell Viability, % of Control, PC-3",[2],87.01 ± 2.71 % of Control
same,"Cell Viability, % of Control, MCF-7",[4],82.77 ± 1.36 % of Control
same,inhibition of growth at 100 µM,[6],6.61 ± 1.12%
same,inhibition of growth at 100 µM,[7],0%
same,inhibition of growth at 100 µM,[8],20.3 ± 1.2%
same,effect on NO levels,[1],downregulate
same,"Cell Viability, % of Control, HEK-298",[14],87.01 ± 2.71 % of Control
same,"Cell Viability, % of Control, HeLa",[17],66.70 ± 6.64 % of Control
"[Cl-].[Cl-].[Co+2] [CoCl2, cobalt (II) chloride, reference compound]",lipid peroxide levels in HEK-293 cells,[19],significant increase
same,decrease of the viability of HEK-293 cells,[20],75%

# From article PMC11277992, “New Zosteropenillines and Pallidopenillines from the Seagrass-Derived Fungus Penicillium yezoense KMM 4679” (Marine Drugs, 2024)
